Measured values reported in the supplement of paper PMC10307832.

Legend:
Assay in all cases: relative viability (nuclei count vs DMSO), 5 days (fraction); higher = more cells survive
GSK-J4 + OSI-027 = compound: CCOC(=O)CCNc1cc(N2CCc3ccccc3CC2)nc(-c2ccccn2)n1 [GSK-J4] + COc1cccc2cc(-c3nc([C@H]4CC[C@H](C(=O)O)CC4)n4ncnc(N)c34)[nH]c12 [OSI-027] (partner 0.5 µM)
Method in brief: (§1)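 Lung cancer cell lines were pin-tool dosed in 1536-well plates on the day after seeding, with either a lone drug or a fixed anchor-drug dose plus five library-drug doses (not always all listed) in √10 steps. Nuclei were counted on 4× images after 5 days. Relative viability is the ratio of treated-well to vehicle-well nuclei counts, with each value a median of duplicate plates.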

AZ3146 + Lapatinib = compound: CN1CCC(CC1)OC2=CC(=C(C=C2)NC3=NC=C4C(=N3)N(C(=O)N4C)C5CCCC5)OC [AZ3146] + CS(=O)(=O)CCNCc1ccc(-c2ccc3ncnc(Nc4ccc(OCc5cccc(F)c5)c(Cl)c4)c3c2)o1 [Lapatinib] (partner 2 µM)
Method in brief: as §1

AZ3146 + Dasatinib = compound: CN1CCC(CC1)OC2=CC(=C(C=C2)NC3=NC=C4C(=N3)N(C(=O)N4C)C5CCCC5)OC [AZ3146] + Cc1nc(Nc2ncc(C(=O)Nc3c(C)cccc3Cl)s2)cc(N2CCN(CCO)CC2)n1 [Dasatinib] (partner 0.075 µM)
Method in brief: as §1

GSK-J4 + Pictilisib = compound: CCOC(=O)CCNc1cc(N2CCc3ccccc3CC2)nc(-c2ccccn2)n1 [GSK-J4] + CS(=O)(=O)N1CCN(Cc2cc3nc(-c4cccc5[nH]ncc45)nc(N4CCOCC4)c3s2)CC1 [Pictilisib] (partner 1 µM)
Method in brief: as §1

Row | Cell Line | relative viability (GSK-J4 + OSI-027; first compound 0.5 µM) | relative viability (GSK-J4 + OSI-027; first compound 15.81 µM) | relative viability (GSK-J4 + OSI-027; first compound 50 µM) | relative viability (AZ3146 + Lapatinib; first compound 0.08 µM) | relative viability (AZ3146 + Lapatinib; first compound 0.253 µM) | relative viability (AZ3146 + Lapatinib; first compound 0.8 µM) | relative viability (AZ3146 + Lapatinib; first compound 2.53 µM) | relative viability (AZ3146 + Lapatinib; first compound 8 µM) | relative viability (AZ3146 + Dasatinib; first compound 0.08 µM) | relative viability (AZ3146 + Dasatinib; first compound 0.253 µM) | relative viability (AZ3146 + Dasatinib; first compound 0.8 µM) | relative viability (AZ3146 + Dasatinib; first compound 2.53 µM) | relative viability (AZ3146 + Dasatinib; first compound 8 µM) | relative viability (GSK-J4 + Pictilisib; first compound 0.5 µM) | relative viability (GSK-J4 + Pictilisib; first compound 1.581 µM) | relative viability (GSK-J4 + Pictilisib; first compound 15.81 µM) | relative viability (GSK-J4 + Pictilisib; first compound 50 µM) | relative viability (GSK-J4 + OSI-027; first compound 1.581 µM) | relative viability (GSK-J4 + OSI-027; first compound 5 µM) | relative viability (GSK-J4 + Pictilisib; first compound 5 µM)
1 | HARA | 0.548 | 0.282 | 0.219 | 0.652 | 0.851 | 0.662 | 0.822 | 0.693 | 0.274 | 0.211 | 0.254 | 0.217 | 0.302 | 0.375 | 0.443 | 0.524 | 0.156 |  |  | 
2 | NCI-H661 | 0.694 | 0.542 | 0.435 | 0.661 | 0.514 | 0.559 | 0.537 | 0.472 | 0.867 | 0.859 | 0.927 | 0.765 | 0.459 | 0.484 | 0.463 | 0.339 | 0.342 | 0.645 | 0.559 | 0.331
3 | NCI-H2087 | 0.552 | 0.542 | 0.421 | 0.899 | 1.08 | 1.08 | 0.906 | 1.14 | 0.802 | 1.09 | 0.902 | 0.801 | 0.702 | 0.816 | 0.341 | 0.999 | 0.424 |  | 0.851 | 
4 | NCI-H2405 | 0.682 | 0.521 | 0.556 | 1.11 |  | 0.967 | 1.31 | 1.29 | 0.166 | 0.187 | 0.191 | 0.212 | 0.185 | 0.465 | 0.713 | 0.708 | 0.475 | 0.703 |  | 
5 | NCI-H2170 | 0.692 | 0.702 | 0.524 | 0.265 | 0.283 | 0.252 | 0.273 | 0.277 | 0.497 | 0.455 | 0.598 | 0.61 | 0.491 | 0.325 | 0.381 | 0.357 | 0.221 | 0.696 | 0.718 | 0.27
6 | NCI-H1793 | 0.36 | 0.167 | 0.2 | 0.649 | 0.853 | 0.492 | 0.805 | 0.497 | 0.303 | 0.412 | 0.404 | 0.348 | 0.423 | 0.249 | 0.171 | 0.364 | 0.337 | 0.215 | 0.258 | 0.54
7 | NCI-H647 | 0.674 | 0.594 | 0.774 | 1.05 | 1.12 | 1.12 | 1.25 | 0.792 | 0.214 | 0.186 | 0.178 | 0.216 | 0.138 | 0.576 | 0.479 | 0.426 | 0.353 | 0.513 | 0.391 | 0.272
8 | NCI-H596 | 0.72 | 0.464 | 0.597 | 1.05 | 0.94 | 1.21 | 1.08 | 0.979 | 0.56 | 0.582 | 0.581 | 0.636 | 0.538 | 0.417 | 0.428 | 0.431 | 0.369 | 0.767 | 0.857 | 0.365
9 | EMC-BAC-2 | 0.347 | 0.315 | 0.311 | 0.85 | 0.845 | 0.954 | 0.954 | 0.987 | 0.273 | 0.366 | 0.38 | 0.372 | 0.354 | 0.627 | 0.597 | 0.598 | 0.52 | 0.386 | 0.249 | 0.423
10 | SK-MES-1 | 0.573 | 0.436 | 0.327 | 0.496 | 0.43 | 0.424 | 0.523 | 0.432 | 0.42 | 0.311 | 0.387 | 0.316 | 0.258 | 0.37 | 0.265 | 0.348 | 0.34 | 0.542 | 0.535 | 0.394
11 | H3255 | 0.616 | 0.529 | 0.531 | 0.23 | 0.216 | 0.186 | 0.267 | 0.245 | 0.258 | 0.242 | 0.339 | 0.374 | 0.405 | 0.415 | 0.414 | 0.412 | 0.424 | 0.545 | 0.627 | 0.498
12 | NCI-H1651 | 0.79 | 0.706 | 0.721 | 0.757 | 0.854 | 0.815 | 0.921 | 0.636 | 0.335 | 0.387 | 0.422 | 0.35 | 0.251 | 0.578 | 0.416 | 0.639 | 0.389 | 0.734 | 0.687 | 0.668
13 | NCI-H1395 | 0.65 | 0.591 | 0.569 | 0.853 | 0.915 | 0.997 | 1.19 | 0.999 | 0.415 | 0.381 | 0.327 | 0.42 | 0.398 | 0.578 | 0.524 | 0.573 | 0.518 | 0.641 | 0.515 | 0.544
14 | NCI-H23 | 0.657 | 0.41 | 0.392 | 1.11 | 1.22 | 1.14 | 1.31 | 0.915 | 0.894 | 0.767 | 0.612 | 0.756 | 0.97 | 0.535 |  | 0.49 | 0.319 | 0.363 | 0.535 | 0.545
15 | NCI-H1355 | 0.438 | 0.29 | 0.278 | 0.854 | 0.951 | 0.986 | 1.03 | 0.953 | 0.654 | 0.644 | 0.767 | 0.68 | 0.726 | 0.521 | 0.302 | 0.418 | 0.478 | 0.316 | 0.35 | 0.397
16 | NCI-H2085 | 0.796 | 0.459 | 0.515 | 0.731 | 0.752 | 0.7 | 0.823 | 0.699 | 0.256 | 0.231 | 0.266 | 0.257 | 0.208 | 0.546 | 0.463 | 0.481 | 0.415 | 0.66 | 0.569 | 0.677
